Measurements: ChEMBL document CHEMBL1201861, “Genomics of Drug Sensitity in Cancer screening data, Wellcome Trust Sanger Institute”

How the values were obtained:
Test in all cases: cells
[1] = tested on: HCE-T; type: functional, cell-based, Homo sapiens; conditions: Homo sapiens, HCE-T;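 further: cell viability assay read-out, reporting inhibition of HCE-T cell growth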
Description: SANGER: Inhibition of human HCE-T cell growth in a cell viability assay.

[2] = tested on: MFM-223; type: functional, cell-based, Homo sapiens; conditions: Homo sapiens, MFM-223
Description: SANGER: Inhibition of human MFM-223 cell growth in a cell viability assay.

[3] = tested on: MV4-11; type: functional, cell-based, Homo sapiens, MV-4-11; conditions: Homo sapiens, MV4-11;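 further: cell viability readout measuring growth inhibition of human MV-4-11 cells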
Description: SANGER: Inhibition of human MV-4-11 cell growth in a cell viability assay.

[4] = tested on: RPMI-8226; type: functional, cell-based, Homo sapiens; conditions: Homo sapiens, RPMI-8226
Description: SANGER: Inhibition of human RPMI-8226 cell growth in a cell viability assay.

[5] = tested on: ALL-PO; type: functional, cell-based, Homo sapiens; conditions: Homo sapiens, ALL-PO;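 further: growth inhibition of ALL-PO cells, read out by a cell viability assay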
Description: SANGER: Inhibition of human ALL-PO cell growth in a cell viability assay.

[6] = tested on: NCI-H1355; type: functional, cell-based, Homo sapiens; conditions: Homo sapiens, NCI-H1355;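 further: growth inhibition of human NCI-H1355 cells, read out by a cell viability assay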
Description: SANGER: Inhibition of human NCI-H1355 cell growth in a cell viability assay.

[7] = tested on: LAMA-84; type: functional, cell-based, Homo sapiens; conditions: Homo sapiens, LAMA-84;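 further: growth inhibition of LAMA-84 cells, read out with a cell viability assay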
Description: SANGER: Inhibition of human LAMA-84 cell growth in a cell viability assay.

[8] = tested on: ES3; type: functional, cell-based, Homo sapiens; conditions: Homo sapiens, ES3;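 further: growth inhibition of ES3 cells, read out with a cell viability assay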
Description: SANGER: Inhibition of human ES3 cell growth in a cell viability assay.

[9] = tested on: LS-411N; type: functional, cell-based, Homo sapiens; conditions: Homo sapiens, LS-411N
[10] = tested on: EW-11; type: functional, cell-based, Homo sapiens; conditions: Homo sapiens, EW-11;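 further: growth inhibition of human EW-11 cells, measured with a cell viability assay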
Description: SANGER: Inhibition of human EW-11 cell growth in a cell viability assay.

[11] = tested on: DEL; type: functional, cell-based, Homo sapiens; conditions: Homo sapiens, DEL;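 further: growth inhibition of the human DEL cell line, read out with a cell viability assay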
Description: SANGER: Inhibition of human DEL cell growth in a cell viability assay.

[12] = tested on: EW-3; type: functional, cell-based, Homo sapiens; conditions: Homo sapiens, EW-3;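 further: cell viability assay read-out, IC50 reflects inhibition of growth of the EW-3 cells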
Description: SANGER: Inhibition of human EW-3 cell growth in a cell viability assay.

[13] = tested on: ETK-1; type: functional, cell-based, Homo sapiens; conditions: Homo sapiens, ETK-1;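 further: growth inhibition of human ETK-1 cells, read out with a cell viability assay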
Description: SANGER: Inhibition of human ETK-1 cell growth in a cell viability assay.

[14] = tested on: NB17; type: functional, cell-based, Homo sapiens; conditions: Homo sapiens, NB17;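 further: growth inhibition of NB17 cells, read out with a cell viability assay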
Description: SANGER: Inhibition of human NB17 cell growth in a cell viability assay.

[15] = tested on: EM-2; type: functional, cell-based, Homo sapiens; conditions: Homo sapiens, EM-2;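 further: growth inhibition of EM-2 cells, read out with a cell viability assay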
Description: SANGER: Inhibition of human EM-2 cell growth in a cell viability assay.

[16] = tested on: HCC 2998; type: functional, cell-based, Homo sapiens; conditions: Homo sapiens, HCC 2998;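 further: growth inhibition of human HCC2998 cells, measured with a cell viability read-out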
Description: SANGER: Inhibition of human HCC2998 cell growth in a cell viability assay.

[17] = tested on: LB2518-MEL; type: functional, cell-based, Homo sapiens; conditions: Homo sapiens, LB2518-MEL;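 further: growth inhibition of human LB2518-MEL cells, measured with a cell viability assay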
Description: SANGER: Inhibition of human LB2518-MEL cell growth in a cell viability assay.

[18] = tested on: KALS-1; type: functional, cell-based, Homo sapiens; conditions: Homo sapiens, KALS-1;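 further: growth inhibition of KALS-1 cells, determined with a cell viability assay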
Description: SANGER: Inhibition of human KALS-1 cell growth in a cell viability assay.

[19] = tested on: NCI-N87; type: functional, cell-based, Homo sapiens; conditions: Homo sapiens, NCI-N87;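 further: growth inhibition of human NCI-N87 cells, read out with a cell viability assay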
Description: SANGER: Inhibition of human NCI-N87 cell growth in a cell viability assay.

[20] = tested on: SK-N-DZ; type: functional, cell-based, Homo sapiens; conditions: Homo sapiens, SK-N-DZ;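 further: growth inhibition of the cancer cell line, read out through a viability assay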
Description: SANGER: Inhibition of human SK-N-DZ cell growth in a cell viability assay.

[21] = tested on: OMC-1; type: functional, cell-based, Homo sapiens; conditions: Homo sapiens, OMC-1;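 further: growth inhibition of the OMC-1 cell line, measured by a cell viability assay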
Description: SANGER: Inhibition of human OMC-1 cell growth in a cell viability assay.

[22] = tested on: KARPAS-45; type: functional, cell-based, Homo sapiens; conditions: Homo sapiens, KARPAS-45;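 further: inhibition of cell line growth, read out through a viability assay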
Description: SANGER: Inhibition of human KARPAS-45 cell growth in a cell viability assay.

[23] = tested on: LB771-HNC; type: functional, cell-based, Homo sapiens; conditions: Homo sapiens, LB771-HNC;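 further: growth inhibition of LB771-HNC human cells, read out with a cell viability assay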
Description: SANGER: Inhibition of human LB771-HNC cell growth in a cell viability assay.

[24] = tested on: SNU-C2B; type: functional, cell-based, Homo sapiens; conditions: Homo sapiens, SNU-C2B;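 further: cell viability readout used to measure compound-driven suppression of SNU-C2B cell proliferation, IC50 marking half-maximal growth inhibition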
Description: SANGER: Inhibition of human SNU-C2B cell growth in a cell viability assay.

[25] = tested on: K5; type: functional, cell-based, Homo sapiens; conditions: Homo sapiens, K5
Description: SANGER: Inhibition of human K5 cell growth in a cell viability assay.

[26] = tested on: BV-173; type: functional, cell-based, Homo sapiens; conditions: Homo sapiens, BV-173
Description: SANGER: Inhibition of human BV-173 cell growth in a cell viability assay.

[27] = tested on: KGN; type: functional, cell-based, Homo sapiens; conditions: Homo sapiens, KGN;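 further: growth inhibition of KGN cells, read out with a cell viability assay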
Description: SANGER: Inhibition of human KGN cell growth in a cell viability assay.

[28] = tested on: KNS-42; type: functional, cell-based, Homo sapiens; conditions: Homo sapiens, KNS-42;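 further: growth inhibition of KNS-42 cells, read out with a cell viability assay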
Description: SANGER: Inhibition of human KNS-42 cell growth in a cell viability assay.

[29] = tested on: IST-SL1; type: functional, cell-based, Homo sapiens; conditions: Homo sapiens, IST-SL1;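 further: growth inhibition of human IST-SL1 cells, read out with a cell viability assay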
Description: SANGER: Inhibition of human IST-SL1 cell growth in a cell viability assay.

[30] = tested on: LB831-BLC; type: functional, cell-based, Homo sapiens; conditions: Homo sapiens, LB831-BLC;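 further: growth inhibition of LB831-BLC cells, read out with a cell viability assay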
Description: SANGER: Inhibition of human LB831-BLC cell growth in a cell viability assay.

[31] = tested on: HH; type: functional, cell-based, Homo sapiens; conditions: Homo sapiens, HH
Description: SANGER: Inhibition of human HH cell growth in a cell viability assay.

[32] = tested on: SH-4; type: functional, cell-based, Homo sapiens; conditions: Homo sapiens, SH-4;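 further: growth inhibition of SH-4 cells, read out with a cell viability assay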
Description: SANGER: Inhibition of human SH-4 cell growth in a cell viability assay.

[33] = tested on: P30-OHK; type: functional, cell-based, Homo sapiens; conditions: Homo sapiens, P30-OHK;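 further: growth inhibition of the P30-OHK cell line, read out with a cell viability assay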
Description: SANGER: Inhibition of human P30-OHK cell growth in a cell viability assay.

[34] = tested on: NMC-G1; type: functional, cell-based, Homo sapiens; conditions: Homo sapiens, NMC-G1;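 further: growth inhibition of the NMC-G1 cell line, measured with a cell viability read-out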
Description: SANGER: Inhibition of human NMC-G1 cell growth in a cell viability assay.

[35] = tested on: JVM-2; type: functional, cell-based, Homo sapiens; conditions: Homo sapiens, JVM-2;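 further: growth inhibition of JVM-2 cells determined by a cell viability assay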
Description: SANGER: Inhibition of human JVM-2 cell growth in a cell viability assay.

[36] = tested on: NCI-H526; type: functional, cell-based, Homo sapiens; conditions: Homo sapiens, NCI-H526;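 further: growth inhibition of the human NCI-H526 cell line, measured by a cell viability assay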
Description: SANGER: Inhibition of human NCI-H526 cell growth in a cell viability assay.

[37] = tested on: MS-1; type: functional, cell-based, Homo sapiens; conditions: Homo sapiens, MS-1;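 further: growth inhibition of MS-1 cells, read out by cell viability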
Description: SANGER: Inhibition of human MS-1 cell growth in a cell viability assay.

[38] = tested on: D-502MG; type: functional, cell-based, Homo sapiens; conditions: Homo sapiens, D-502MG
Description: SANGER: Inhibition of human D-502MG cell growth in a cell viability assay.

[39] = tested on: MN-60; type: functional, cell-based, Homo sapiens; conditions: Homo sapiens, MN-60;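 further: growth inhibition of the MN-60 cell line, determined with a cell viability assay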
Description: SANGER: Inhibition of human MN-60 cell growth in a cell viability assay.

[40] = tested on: JVM-3; type: functional, cell-based, Homo sapiens; conditions: Homo sapiens, JVM-3;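 further: growth inhibition of human JVM-3 cells, read out with a cell viability assay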
Description: SANGER: Inhibition of human JVM-3 cell growth in a cell viability assay.

[41] = tested on: RH-1; type: functional, cell-based, Homo sapiens; conditions: Homo sapiens, RH-1;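 further: growth inhibition of human RH-1 cells, read out with a cell viability assay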
Description: SANGER: Inhibition of human RH-1 cell growth in a cell viability assay.

[42] = tested on: ATN-1; type: functional, cell-based, Homo sapiens; conditions: Homo sapiens, ATN-1;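 further: growth inhibition of human ATN-1 cells, read out with a cell viability assay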
Description: SANGER: Inhibition of human ATN-1 cell growth in a cell viability assay.

[43] = tested on: C2BBe1; type: functional, cell-based, Homo sapiens; conditions: Homo sapiens, C2BBe1;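 further: growth inhibition of C2BBe1 cells, read out through a viability assay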
Description: SANGER: Inhibition of human C2BBe1 cell growth in a cell viability assay.

[44] = tested on: DMS-114; type: functional, cell-based, Homo sapiens; conditions: Homo sapiens, DMS-114
[45] = tested on: CAS-1; type: functional, cell-based, Homo sapiens; conditions: Homo sapiens, CAS-1;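 further: growth inhibition of CAS-1 cells, measured with a cell viability assay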
Description: SANGER: Inhibition of human CAS-1 cell growth in a cell viability assay.

[46] = tested on: LS-513; type: functional, cell-based, Homo sapiens; conditions: Homo sapiens, LS-513
Description: SANGER: Inhibition of human LS-513 cell growth in a cell viability assay.

[47] = tested on: EW-13; type: functional, cell-based, Homo sapiens; conditions: Homo sapiens, EW-13;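 further: growth inhibition of EW-13 cells, read out with a cell viability assay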
Description: SANGER: Inhibition of human EW-13 cell growth in a cell viability assay.

[48] = tested on: DOHH-2; type: functional, cell-based, Homo sapiens; conditions: Homo sapiens, DOHH-2;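 further: growth inhibition of human DOHH-2 cells, read out with a cell viability assay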
Description: SANGER: Inhibition of human DOHH-2 cell growth in a cell viability assay.

[49] = tested on: SK-NEP-1; type: functional, cell-based, Homo sapiens; conditions: Homo sapiens, SK-NEP-1;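 further: growth inhibition of human SK-NEP-1 cells, read out by a cell viability assay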
Description: SANGER: Inhibition of human SK-NEP-1 cell growth in a cell viability assay.

CO[C@H]1C[C@@H]2CC[C@@H](C)[C@@](O)(O2)C(=O)C(=O)N2CCCC[C@H]2C(=O)O[C@H]([C@H](C)C[C@@H]2CC[C@@H](OC(=O)C(C)(CO)CO)[C@H](OC)C2)CC(=O)[C@H](C)/C=C(\C)[C@@H](O)[C@@H](OC)C(=O)[C@H](C)C[C@H](C)/C=C/C=C/C=C/1C [TEMSIROLIMUS]
IC50 [1]: 0.0492 µM | IC50 [2]: > 0.2 µM | IC50 [3]: 0.0189 µM | IC50 [4]: 0.00415 µM | IC50 [5]: > 0.2 µM | IC50 [6]: 0.0559 µM | IC50 [7]: 0.00403 µM | IC50 [8]: 0.0851 µM | IC50 [9]: > 0.2 µM | IC50 [10]: 0.0156 µM | IC50 [11]: 0.00546 µM | IC50 [12]: 0.0492 µM | IC50 [13]: 0.0318 µM | IC50 [14]: > 0.2 µM | IC50 [15]: 0.0542 µM | IC50 [16]: > 0.2 µM | IC50 [17]: > 0.2 µM | IC50 [18]: 0.149 µM | IC50 [19]: 0.175 µM | IC50 [20]: > 0.2 µM | IC50 [21]: > 0.2 µM | IC50 [22]: 0.0513 µM | IC50 [23]: > 0.2 µM | IC50 [24]: > 0.2 µM | IC50 [25]: 0.00133 µM | IC50 [26]: 0.0438 µM | IC50 [27]: > 0.2 µM | IC50 [28]: > 0.2 µM | IC50 [29]: > 0.2 µM | IC50 [30]: > 0.2 µM | IC50 [31]: 0.000664 µM | IC50 [32]: > 0.2 µM | IC50 [33]: > 0.2 µM | IC50 [34]: > 0.2 µM | IC50 [35]: > 0.2 µM | IC50 [36]: 0.0616 µM | IC50 [37]: > 0.2 µM | IC50 [38]: > 0.2 µM | IC50 [39]: 0.0193 µM | IC50 [40]: 0.00395 µM | IC50 [41]: > 0.2 µM | IC50 [42]: > 0.2 µM | IC50 [43]: > 0.2 µM | IC50 [44]: 0.119 µM | IC50 [45]: > 0.2 µM | IC50 [46]: > 0.2 µM | IC50 [47]: 0.0145 µM | IC50 [48]: 0.0168 µM | IC50 [49]: 0.00149 µM

CC1(C)CNc2cc(NC(=O)c3cccnc3NCc3ccncc3)ccc21 [MOTESANIB]
IC50 [1]: > 2 µM | IC50 [2]: > 2 µM | IC50 [3]: > 2 µM | IC50 [4]: > 2 µM | IC50 [5]: > 2 µM | IC50 [6]: > 2 µM | IC50 [7]: > 2 µM | IC50 [8]: > 2 µM | IC50 [9]: > 2 µM | IC50 [10]: > 2 µM | IC50 [11]: > 2 µM | IC50 [12]: > 2 µM | IC50 [13]: > 2 µM | IC50 [14]: > 2 µM | IC50 [15]: > 2 µM | IC50 [16]: > 2 µM | IC50 [17]: > 2 µM | IC50 [18]: > 2 µM | IC50 [19]: > 2 µM | IC50 [20]: 0.549 µM | IC50 [21]: > 2 µM | IC50 [22]: > 2 µM | IC50 [23]: > 2 µM | IC50 [24]: > 2 µM | IC50 [25]: > 2 µM | IC50 [26]: > 2 µM | IC50 [27]: > 2 µM | IC50 [28]: > 2 µM | IC50 [29]: > 2 µM | IC50 [30]: > 2 µM | IC50 [31]: > 2 µM | IC50 [32]: > 2 µM | IC50 [33]: > 2 µM | IC50 [34]: > 2 µM | IC50 [35]: > 2 µM | IC50 [36]: > 2 µM | IC50 [37]: > 2 µM | IC50 [38]: > 2 µM | IC50 [39]: > 2 µM | IC50 [40]: > 2 µM | IC50 [41]: > 2 µM | IC50 [42]: > 2 µM | IC50 [43]: > 2 µM | IC50 [44]: > 2 µM | IC50 [45]: > 2 µM | IC50 [46]: > 2 µM | IC50 [47]: > 2 µM | IC50 [48]: > 2 µM | IC50 [49]: > 2 µM
